This is an account of results in patent publication US20230091047A1 (priority 2019, published 2023).

In general, CC50 refers to the concentration that lowers cell viability or growth by half. As a reminder, the EC50 is the midpoint of the concentration-response curve.

Read-outs that look alike come from different tables or passages of the source.

Series [1] can be described thus: in vitro. The format is cell-based. Particulars: human, HepG2 or HepG2.117 cells, mean value. The protocol:
Cytotoxicity of the compounds was tested using HepG2 or HepG2.117 cells, incubated for 3 or 4 days in the presence of compounds. The viability of the cells was assessed using the PERKIN ELMER ATPlite Luminescence Assay System.”

The subject of series [2] is HBV (HepG2.117 cell line, inducibly HBV producing). In words: Anti-HBV activity: intracellular HBV DNA by real-time PCR in HepG2.117 cells after 3 days of treatment. The format is cell-based, hepatitis B virus. Here is the method:
The anti HBV activity was measured using the HepG2.117 cell line, a stable, inducibly HBV producing cell line, which replicates HBV in the absence of doxycycline (Tet-off system). The HepG2 cell line is available from ATCCR under number HB-8065. Transfection of the HepG2 cell line can be as described in Sun and Nassal 2006 Journal of Hepatology 45 (2006) 636-645 “Stable HepG2- and Huh7-based human hepatoma cell lines for efficient regulated expression of infectious hepatitis B virus”.
For the antiviral assay, HBV replication was induced, followed by a treatment with serially diluted compound in 96-well plates. After 3 days of treatment, the antiviral activity was determined by quantification of intracellular HBV DNA using real-time PCR and an HBV specific primer set and probe.
A general note: In qPCR the cycle at which signal appears reflects the starting amount.

Setting [3] is: ATPlite, 3-days incubation (not marked with *).
[4] abbreviates: Hepatitis B virus, HepG2.117, 72 h, HepG2.117 cells, intracellular HBV DNA by real-time PCR, 3 days of treatment, mean value; read-out: EC50 (μM, mean value).
Setting [5] is: 3-days incubation (unmarked values), ATPlite.
Where [6] appears, read: Hepatitis B virus, HepG2.117, 72 h, HepG2.117 cells, 3 days of treatment, intracellular HBV DNA by real-time PCR; mean value; read-out: EC50 (μM, mean value).

In the case of `CC(=O)Nc1ccc(-n2c(N[C@H](C)c3ccc4[nH]ncc4c3)nc3c(c2=O)C[C@@H](C)N(C(=O)c2ccc(Cl)c(Cl)c2)C3)cc1` (single isomer, unassigned) [Compound C462a], in series [1] (setting [3]), the CC50 at 3 days is more than 50 µM. The EC50 in series [2] (setting [4]) was 1.24 µM.
The molecule `O=C(c1ccc(Cl)c(Cl)c1)N1CCc2c(nc(NCc3ccccc3)n(-c3ccccc3)c2=O)C1` [Compound C33, 2-(benzylamino)-7-(3,4-dichlorobenzoyl)-3-phenyl-5,6,7,8-tetrahydropyrido[3,4-d]pyrimidin-4(3H)-one] gave a half-maximal cytotoxic concentration (CC50) at 3 days in series [1] (setting [5]) of 24.4 µM. Also, in series [2] (setting [6]), the half-maximal effective concentration (EC50) stood at 4.27 µM.
In series [1] (setting [3]), `CC(C)Nc1nc2c(c(=O)n1-c1ccc(C(=O)NC3CC3)cc1)C[C@@H](C)N(C(=O)c1ccc(Cl)c(C(F)(F)F)c1)C2` [Compound C654] came in with a 50% cytotoxic concentration (CC50) at 3 days of more than 50 µM. Moreover, the concentration for a half-maximal effect (EC50) in series [2] (setting [4]) amounted to 0.03 µM.
Consider `CNC(=O)c1ccc(-n2c(NC(C)C)nc3c(c2=O)C[C@@H](C)N(C(=O)c2cc(C)cc(F)c2)C3)cc1` [Compound C492], for which the CC50 at 3 days in series [1] (setting [3]) was more than 50 µM. The EC50 in series [2] (setting [4]) came out at 1.98 µM.
In series [1] (3-days incubation (unmarked values), ATPlite viability), `CNC(=O)c1ccc(-n2c(N[C@@H](C)C3CC3)nc3c(c2=O)C[C@@H](C)N(C(=O)c2ccc(Cl)c(C(F)F)c2)C3)cc1` [Compound C699, 4-((R)-7-(4-chloro-3-(difluoromethyl)benzoyl)-2-(((S)-1-cyclopropylethyl)amino)-6-methyl-4-oxo-5,6,7,8-tetrahydropyrido[3,4-d]pyrimidin-3(4H)-yl)-N-methylbenzamide] came in with a CC50 at 3 days of more than 50 µM. In series [2] (setting [6]), the EC50 is 0.04 µM.
`CC(C)Nc1nc2c(c(=O)n1-c1ccc(C(=O)O)cc1)C[C@@H](C)N(C(=O)c1ccc(Cl)c(Cl)c1)C2` [Compound I70, (R)-4-(7-(3,4-dichlorobenzoyl)-2-(isopropylamino)-6-methyl-4-oxo-5,6,7,8-tetrahydropyrido[3,4-d]pyrimidin-3(4H)-yl)benzoic acid]: the CC50 at 3 days in series [1] (setting [3]) is more than 50 µM. Moreover, in series [2] (setting [4]), the EC50 came out at 3.6 µM.
`CNC(=O)c1ccc(-n2c(NC(C)C)nc3c(c2=O)C[C@@H](C)N(C(=O)c2ccc(Br)c(F)c2C)C3)cc1` [Compound C581] showed a CC50 at 3 days in series [1] (setting [3]) of more than 50 µM. In addition, the concentration giving a half-maximal response (EC50) in series [2] (setting [4]) was found to be 0.15 µM.
For the molecule `CC(Nc1nc2c(c(=O)n1-c1ccc(S(C)(=O)=O)cc1)C[C@@H](C)N(C(=O)c1ccc(Cl)c(Cl)c1)C2)C1CC1` (stereo partly drawn) [Compound C199, (6R)-2-[(1-cyclopropylethyl)amino]-7-(3,4-dichlorobenzoyl)-3-[4-(methanesulfonyl)phenyl]-6-methyl-5,6,7,8-tetrahydropyrido[3,4-d]pyrimidin-4(3H)-one], the CC50 at 3 days in series [1] (setting [5]) is more than 50 µM. For the same molecule, the EC50 in series [2] (setting [6]) is 0.3 µM.
The like results for `CC(C)Nc1nc2c(c(=O)n1-c1ccc(S(C)(=O)=O)cc1)CC(c1ccc(F)cc1)N(C(=O)c1ccc(Cl)c(Cl)c1)C2` (centres unmarked) [Compound C110, 7-(3,4-dichlorobenzoyl)-6-(4-fluorophenyl)-3-[4-(methanesulfonyl)phenyl]-2-[(propan-2-yl)amino]-5,6,7,8-tetrahydropyrido[3,4-d]pyrimidin-4(3H)-one] were, in that order, more than 50 µM and more than 50 µM.
`CC(C)Nc1nc2c(c(=O)n1-c1ccc(-n3cccn3)cc1)CCN(C(=O)c1ccc(Cl)c(Cl)c1)C2` [Compound C144, 7-(3,4-dichlorobenzoyl)-2-[(propan-2-yl)amino]-3-[4-(1H-pyrazol-1-yl)phenyl]-5,6,7,8-tetrahydropyrido[3,4-d]pyrimidin-4(3H)-one] showed a CC50 at 3 days in series [1] (setting [5]) of more than 50 µM. Besides, the EC50 in series [2] (setting [6]) was 0.6 µM.
The molecule `CC(C)Nc1nc2c(c(=O)n1-c1ccnc(Cl)c1)C[C@@H](C)N(C(=O)c1ccc(Cl)c(Cl)c1)C2` [Compound C656] returned a CC50 at 3 days in series [1] (setting [3]) of more than 50 µM. The 50% effective concentration (EC50) in series [2] (setting [4]) turned out to be 0.26 µM.
In series [1] (setting [5]), `COc1ccccc1-n1c(NCc2ccc3c(c2)OCO3)nc2c(c1=O)CCN(C(=O)c1ccc(Cl)c(Cl)c1)C2` [Compound C26, 2-{[(2H-1,3-benzodioxol-5-yl)methyl]amino}-7-(3,4-dichlorobenzoyl)-3-(2-methoxyphenyl)-5,6,7,8-tetrahydropyrido[3,4-d]pyrimidin-4(3H)-one] yielded a CC50 at 3 days of more than 50 µM. For the same molecule, the half-maximal effective concentration (EC50) in series [2] (setting [6]) worked out at 1.72 µM.
On to `COCCNC(=O)c1ccc(-n2c(NC(C)C)nc3c(c2=O)C[C@@H](C)N(C(=O)c2ccc(Cl)c(Cl)c2)C3)cc1` [Compound C205, 4-[(6R)-7-(3,4-dichlorobenzoyl)-6-methyl-4-oxo-2-[(propan-2-yl)amino]-5,6,7,8-tetrahydropyrido[3,4-d]pyrimidin-3(4H)-yl]-N-(2-methoxyethyl)benzamide], for which the CC50 at 3 days in series [1] (setting [5]) is more than 50 µM. Besides, the EC50 in series [2] (setting [6]) amounted to 0.13 µM.
Regarding `CNC(=O)c1ccc(-n2c(NC(C)Cn3cnnc3)nc3c(c2=O)C[C@@H](C)N(C(=O)c2ccc(Cl)c(Cl)c2)C3)cc1` (some centres unmarked) [Compound C481], the CC50 at 3 days in series [1] (setting [3]) was more than 50 µM. Further, the EC50 in series [2] (setting [4]) was more than 25 µM.
In series [1] (setting [3]), `CNC(=O)c1ccc(-n2c(NCc3nnc4n3CCC4)nc3c(c2=O)C[C@@H](C)N(C(=O)c2ccc(Cl)c(Cl)c2)C3)cc1` [Compound C483] displayed a CC50 at 3 days of more than 25 µM. Further, in series [2] (setting [4]), the EC50 is more than 12.5 µM.
For the molecule `CC(C)Nc1nc2c(c(=O)n1-c1ccc(-c3cn[nH]c3)cc1)CCN(C(=O)c1ccc(Cl)c(Cl)c1)C2` [Compound C186, 7-(3,4-dichlorobenzoyl)-2-[(propan-2-yl)amino]-3-[4-(1H-pyrazol-4-yl)phenyl]-5,6,7,8-tetrahydropyrido[3,4-d]pyrimidin-4(3H)-one], the CC50 at 3 days in series [1] (setting [5]) was more than 50 µM. In series [2] (setting [6]), the EC50 came to 0.51 µM.
For the molecule `CC(C)Nc1nc2c(c(=O)n1-c1ccc(S(C)(=O)=O)cc1)CCN(C(=O)c1ccc3sccc3c1)C2` [Compound C164, 7-(1-benzothiophene-5-carbonyl)-3-[4-(methanesulfonyl)phenyl]-2-[(propan-2-yl)amino]-5,6,7,8-tetrahydropyrido[3,4-d]pyrimidin-4(3H)-one], the half-maximal cytotoxic concentration (CC50) at 3 days in series [1] (setting [5]) was more than 50 µM. Besides, in series [2] (setting [6]), the concentration giving a half-maximal response (EC50) amounted to 0.24 µM.
`CC(C)Nc1nc2c(c(=O)n1-c1ccc(C(=O)NC3(C(=O)O)CC3)cc1)C[C@@H](C)N(C(=O)c1ccc(Cl)c(Cl)c1)C2` [Compound C266, 1-{4-[(6R)-7-(3,4-dichlorobenzoyl)-6-methyl-4-oxo-2-[(propan-2-yl)amino]-5,6,7,8-tetrahydropyrido[3,4-d]pyrimidin-3(4H)-yl]benzamido}cyclopropane-1-carboxylic acid]: the 50% cytotoxic concentration (CC50) at 3 days in series [1] (setting [5]) is more than 50 µM. Besides, the EC50 in series [2] (setting [6]) stood at 13.4 µM.
`CC[C@@H](C)Oc1nc2c(c(=O)n1-c1ccc(C(=O)NC)cc1)C[C@@H](C)N(C(=O)c1ccc(Cl)c(Cl)c1)C2` [Compound C397, 4-(R-2-(R-sec-butoxy)-7-(3,4-dichlorobenzoyl)-6-methyl-4-oxo-5,6,7,8-tetrahydropyrido[3,4-d]pyrimidin-3(4H)-yl)-N-methylbenzamide] came in with a CC50 at 3 days in series [1] (setting [3]) of 25.2 µM. For the same molecule, the EC50 in series [2] (setting [4]) stood at 0.05 µM.
For `CNC(=O)c1ccc(-n2c(N[C@H](C)CCO)nc3c(c2=O)C[C@@H](C)N(C(=O)c2ccc(Cl)c(Cl)c2)C3)cc1` [Compound C326, 4-[(6R)-7-(3,4-dichlorobenzoyl)-2-{[(2R)-4-hydroxybutan-2-yl]amino}-6-methyl-4-oxo-5,6,7,8-tetrahydropyrido[3,4-d]pyrimidin-3(4H)-yl]-N-methylbenzamide], the CC50 at 3 days in series [1] (setting [5]) was more than 50 µM. Moreover, in series [2] (setting [6]), the EC50 came to 0.46 µM.
Consider `CC(C)Nc1nc2c(c(=O)n1-c1ccc(N3CC(=O)N(C)C3)cc1)C[C@@H](C)N(C(=O)c1ccc(Cl)c(Cl)c1)C2` [Compound C202, (6R)-7-(3,4-dichlorobenzoyl)-6-methyl-3-[4-(3-methyl-4-oxoimidazolidin-1-yl)phenyl]-2-[(propan-2-yl)amino]-5,6,7,8-tetrahydropyrido[3,4-d]pyrimidin-4(3H)-one], for which the CC50 at 3 days in series [1] (setting [5]) is more than 50 µM. Moreover, in series [2] (setting [6]), the 50% effective concentration (EC50) turned out to be 0.19 µM.
On to `COc1ccc(CNc2nc3c(c(=O)n2-c2ccc(C(=O)O)cc2)CCN(C(=O)c2ccc(Cl)c(Cl)c2)C3)cc1` [Compound C124, 4-[7-(3,4-dichlorobenzoyl)-2-{[(4-methoxyphenyl)methyl]amino}-4-oxo-5,6,7,8-tetrahydropyrido[3,4-d]pyrimidin-3(4H)-yl]benzoic acid], for which the half-maximal cytotoxic concentration (CC50) at 3 days in series [1] (setting [5]) is more than 50 µM. Moreover, in series [2] (setting [6]), the EC50 came out at 36.8 µM.
Molecule `CNC(=O)c1ccc(-n2c(NC3COC(C)(C)C3)nc3c(c2=O)C[C@@H](C)N(C(=O)c2ccc(Cl)c(Cl)c2)C3)cc1` (some centres unmarked) [Compound C480] yielded a CC50 at 3 days in series [1] (setting [3]) of more than 50 µM. Further, the concentration giving a half-maximal response (EC50) in series [2] (setting [4]) was found to be 10.3 µM.
`COc1ccc(CNc2nc3c(c(=O)n2-c2ccc(S(C)(=O)=O)nc2)CCN(C(=O)c2ccc(Cl)c(Cl)c2)C3)cc1` [Compound C102, 7-(3,4-dichlorobenzoyl)-3-[6-(methanesulfonyl)pyridin-3-yl]-2-{[(4-methoxyphenyl)methyl]amino}-5,6,7,8-tetrahydropyrido[3,4-d]pyrimidin-4(3H)-one] had a CC50 at 3 days in series [1] (setting [5]) of more than 50 µM. The EC50 in series [2] (setting [6]) was found to be 0.39 µM.
`CNC(=O)c1ccc(-n2c(N3CCCOC(C)C3)nc3c(c2=O)C[C@@H](C)N(C(=O)c2ccc(Cl)c(Cl)c2)C3)cc1` (some centres unmarked) [Compound C558] gave a CC50 at 3 days in series [1] (setting [3]) of more than 50 µM. In series [2] (setting [4]), the EC50 was 0.46 µM.
